Measurements published in patent US20230279024A1, “TRIAZINE COMPOUND AND COMPOSITION AND USE THEREOF” (BEIJING FINDCURE BIOSCIENCES, LTD., priority 2020, published 2023).
pIC50: −log10 of the molar value.

How the values were obtained:
Ba/F3 AXL cells = test: Cell activity test: growth inhibition of Ba/F3 AXL cell line (CTG, 72 h); format: cell-based; conditions: Mus musculus, BaF3
Experimental: This experiment was conducted by detecting the inhibitory effect of compounds on the growth of Ba/F3 AXL cell line and Ba/F3 parental cell line. Cells in logarithmic growth stage were harvested and counted by platelet counter. Trypan blue rejection method was used to detect cell viability to ensure that the cell viability was above 90%. Adjust cell concentration; 90 μL cell suspension was added to 96-well plates, respectively; Cells in 96-well plates were cultured overnight at 37° C., 5% CO2 and 95% humidity. A 10-fold drug solution was prepared, with the highest concentration of 10 μM, and a total of 9 concentrations were diluted at 3.16 times the ratio. 10 μL drug solution was added to each well of the 96-well plate inoculated with cells, and three wells were set for each drug concentration; 96-well plates were incubated at 37° C., 5% CO2 and 95% humidity for 72 h, and CTG analysis was performed. Thaw the CTG reagent and balance the cell plates to room temperature for 30 minutes. Add the same volume of CTG solution to each well and vibrate on a fixed-rail shaker for 5 minutes to crack the cells. Place the cell plates at room temperature for 20 minutes to stabilize the cold light signal and read the cold light value. The GraphPad Prism 5.0 software was used to analyze the data, and the nonlinear S-curve regression was used to fit the data to obtain the dose-effect curve, and the IC50 value was calculated accordingly. Cell survival rate (%)=(Lum drug to be tested −Lum culture medium control)/(Lum cell control−Lum culture medium control)×100%.

CYP3A4/5 = test: Inhibition of human liver microsomes CYP450, 3A4/5; format: in vitro ADME; conditions: compounds 10 μM (positive control: concentration not given)
AXL (h) kinase = AXL (h) kinase (Homo sapiens (Human), UniProt P30530); test: AXL (h) kinase activity test (EZ Reader mobility shift, FLPeptide30); format: biochemical; conditions: ATP 100 μM, AXL 1 nM
Sequence of AXL (h) kinase (P30530 473-894): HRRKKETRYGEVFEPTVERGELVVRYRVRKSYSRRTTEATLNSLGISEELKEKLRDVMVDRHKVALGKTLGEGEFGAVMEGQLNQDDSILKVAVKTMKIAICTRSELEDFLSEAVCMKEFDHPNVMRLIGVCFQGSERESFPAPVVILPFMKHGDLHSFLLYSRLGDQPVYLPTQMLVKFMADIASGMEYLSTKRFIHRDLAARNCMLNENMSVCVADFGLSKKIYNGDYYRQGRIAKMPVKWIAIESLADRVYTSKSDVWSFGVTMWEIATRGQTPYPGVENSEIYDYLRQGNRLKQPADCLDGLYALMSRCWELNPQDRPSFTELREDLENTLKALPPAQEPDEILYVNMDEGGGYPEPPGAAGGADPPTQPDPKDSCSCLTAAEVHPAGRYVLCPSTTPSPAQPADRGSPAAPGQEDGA
Experimental: The effect of the disclosed compounds as protein kinase inhibitors can be evaluated by the following experiments. The AXL (h) kinase activity of the compounds of the invention is tested by the following methods:
Reagents used in the experiment were AXL (Carna Bioscience, Cat No.: 08-107) and FLPeptide30 (PerkinElmer, Cat No.: 760430). The instruments involved were thermotank (Thermo Scientific), oscillator (QILINBEIER), EZ Reader (PerkinElmer, Cat No.: 122919), Non-contact stage pipetting system (Labcyte Inc., Cat No.: Echo 550), and non-contact nanoliter pipetting system (TECAN, Cat No.: EVO200).
Compound dilution: 1) Dissolve the compound in DMSO to the appropriate concentration; 2) Using TECAN EVO200 to dilute 10 concentrations in 384 microplates by three times gradient, the highest concentration is 1 mM; Echo550 was used to transfer 20 nL solution from the dilution plate to the test plate.
2) Add 15 μL solution 1 to each well of the test plate and incubate at room temperature for 30 minutes.
4) Add 5 μL solution 2 to start the reaction, and the final volume of each well is 20 μL.
5) Incubated at 25° C. for 90 min, and then added 75 μL stop solution (containing 0.5 M EDTA) to terminate the reaction.
6) The sample of each well was analyzed using EZ reader.
1) Based on the measured conversion rate (CR), the Remaining Activity (%) of the kinase was calculated according to the following function:
2) XLFit (Equation 201) software was used to fit IC50.
The above methods can be used to obtain the inhibitory IC50 and/or inhibitory constant Ki.

CYP3A4 [1] = target: T1, CYP3A4 (Homo sapiens (Human), UniProt P08684); conditions: hepatocytes, 2 days, 10 μM
Experimental: (§1) Cryopreservation of human primary hepatocytes was resuscitated in medium after take out from liquid nitrogen. […] Plates were incubated at 37° C. and 5% CO2 for 4-6 hours to confirm the formation of monolayer cells attached to the wall. Then the adherent culture medium was changed into hepatocyte culture medium and the culture was continued overnight.
After the test compound and positive control inducer were co-incubated with cells, the medium was removed and mercaptoethanol was added for cell lysis. Total RNA in cells was extracted with RNA extraction kit, and then transcribed into cDNA with cDNA reverse transcription kit. The 10 μL cDNA template was taken and analyzed on the fluorescence quantitative PCR instrument to obtain the Ct value.
The gene expression data were corrected by internal reference 18S, and the relative expression differences were determined by the method of ΔΔCt commonly used in fluorescence quantitative PCR.
The ΔCt, ΔΔCt and relative expression difference values of the target genes were calculated according to the following formula:
ΔCt=Ct value of target gene−Ct value of internal reference 18S
ΔΔCt=ΔCt of experimental group or positive control group−ΔCt of blank control group
Relative expression difference (fold of induction)=2−ΔΔ^Ct

CYP3A4 [2] = target: T1, CYP3A4; conditions: hepatocytes, 2 days, 10 μM; remark: listed apart in the source
Experimental: as §1
After the test compounds and positive control inducers were co-incubated with cells, the incubation medium was removed. […] After the samples were extracted and processed, the generation of metabolites and the kinase activities of CYP1A2, 2B6 and 3A4 was quantitatively detected by LC-MS/MS, respectively.
The induction of test substance on each subenzyme was determined by detecting the generation rate of metabolites of CYP450 subenzyme substrates. The relative activity of each subenzyme was expressed as a percentage of the relative blank control, and the data were calculated according to the following formula:
Fold of induction=sample subenzyme activity/blank subenzyme activity
Relative positive control activity (PC %)=(Fold of induction of sample group—Fold of induction of blank group)/(Fold of induction of positive control group—Fold of induction of blank group)×100

| SMILES | pIC50 (Ba/F3 AXL cells) | Inhibitory rate (%) 3A4/5 (CYP3A4/5) | pIC50 (AXL (h) kinase) | Gene expression CYP3A4 Fold of induction (CYP3A4 [1]) | Enzymatic activity CYP3A4 Fold of induction (CYP3A4 [2]) |
| --- | --- | --- | --- | --- | --- |
| Nc1ncnn2c1c(-c1ccc(NC(=O)c3c4n(n(-c5ccccn5)c3=O)CCCC4)cc1)cc2[C@H]1CC[C@H](O)CC1 [example 20, N-(4-(4-amino-7-((1r,4r)-4-hydroxycyclohexyl)pyrrole[2,1-f][1,2,4]triazin-5-yl)phenyl)-2-oxo-1-(pyridin-2-yl)-1,2,4,5,6,7-hexahydropyrazol[1,5-a]pyridine-3-carboxamide] | 7.30 to 8.30 | No inhibition |  |  |  |
| Nc1ncnn2c1c(-c1ccc(NC(=O)c3c4n(n(-c5ccccc5)c3=O)CCOC4)cc1)cc2[C@H]1CC[C@H](O)CC1 [example 7, N-(4-(4-amino-7-((1r,4r)-4-hydroxycyclohexyl)pyrrolo[2,1-f][1,2,4]triazin-5-yl)phenyl)-2-oxo-1-phenyl-2,4,6,7-tetrahydro-1H-pyrazolo[5,1-c][1,4]oxazine-3-carboxamide] |  | No inhibition | > 8.30 |  |  |
| Nc1ncnn2c(C3CCNCC3)cc(-c3ccc(NC(=O)c4c5n(n(-c6ccccc6)c4=O)CCOC5)cc3)c12 [example 2, N-(4-(4-amino-7-(piperidin-4-yl)pyrrolo[2,1-f][1,2,4]triazin-5-yl)phenyl)-2-oxo-1-phenyl-2,4,6,7-tetrahydro-1H-pyrazolo[5,1-c][1,4]oxazine-3-carboxamide] | 7.00 to 7.30 |  | < 7.00 |  |  |
| CC(C)(C)C(=O)N1CCC(c2cc(-c3ccc(NC(=O)c4c5n(n(-c6ccccn6)c4=O)CCOC5)cc3F)c3c(N)ncnn23)CC1 [example 37] | > 8.30 |  | 7.30 to 8.30 |  |  |
| CC(C)(O)C(=O)N1CCC(c2cc(-c3ccc(NC(=O)c4c5n(n(-c6ccccn6)c4=O)CCCC5)cc3)c3c(N)ncnn23)CC1 [example 13, N-(4-(4-amino-7-(1-(2-hydroxy-2-methylpropanoyl)piperidin-4-yl)pyrrolo[2,1-f][1,2,4]triazin-5-yl)phenyl)-2-oxo-1-(pyridin-2-yl)-1,2,4,5,6,7-hexahydropyrazolo[1,5-a]pyridine-3-carboxamide] | 7.30 to 8.30 |  | 7.30 to 8.30 |  |  |
| Nc1ncnn2c(C3CCN(C(=O)C4CC4)CC3)cc(-c3ccc(NC(=O)c4c5n(n(-c6cccnc6)c4=O)CCCC5)cc3)c12 [example 49] | 7.30 to 8.30 |  | 7.30 to 8.30 |  |  |
| Nc1ncnn2c(C3CCN(C(=O)C4CC4)CC3)cc(-c3ccc(NC(=O)c4c5n(n(-c6ccccn6)c4=O)CCCC5)cc3)c12 [example 36, N-(4-(4-amino-7-(1-(cyclopropanecarbonyl)piperidin-4-yl)pyrrolo[2,1-f][1,2,4]triazin-5-yl)phenyl)-2-oxo-1-(pyridin-2-yl)-1,2,4,5,6,7-hexahydropyrazolo[1,5-a]pyridine-3-carboxamide] | > 8.30 | No inhibition | 7.30 to 8.30 |  |  |
| CC(C)(O)C(=O)N1CCC(c2cc(-c3ccc(NC(=O)c4c5n(n(-c6ccccn6)c4=O)CCOC5)cc3)c3c(N)ncnn23)CC1 [example 15, N-(4-(4-amino-7-(1-(2-hydroxy-2-methylpropanoyl)piperidin-4-yl)pyrrolo[2,1-f][1,2,4]triazin-5-yl)phenyl)-2-oxo-1-(pyridin-2-yl)-2,4,6,7-tetrahydro-1H-pyrazolo[5,1-c][1,4]oxazine-3-carboxamide] | 7.30 to 8.30 |  | 7.30 to 8.30 |  |  |

Next, values leading:

| pIC50 (Ba/F3 AXL cells) | Inhibitory rate (%) 3A4/5 (CYP3A4/5) | pIC50 (AXL (h) kinase) | Gene expression CYP3A4 Fold of induction (CYP3A4 [1]) | Enzymatic activity CYP3A4 Fold of induction (CYP3A4 [2]) | SMILES |
| --- | --- | --- | --- | --- | --- |
| > 8.30 |  | 7.30 to 8.30 | 284 | 1.5 | CC(C)C(=O)N1CCC(c2cc(-c3ccc(NC(=O)c4c5n(n(-c6ccccc6)c4=O)CCCC5)cc3)c3c(N)ncnn23)CC1 [example 19, N-(4-(4-amino-7-(1-isobutyrylpiperidin-4-yl)pyrrolo[2,1-f][1,2,4]triazin-5-yl)phenyl)-2-oxo-1-phenyl-1,2,4,5,6,7-hexahydropyrazolo[1,5-a]pyridine-3-carboxamide] |
| > 8.30 | No inhibition | 7.30 to 8.30 | 1.31 | 1.02 | Nc1ncnn2c1c(-c1ccc(NC(=O)c3c4n(n(-c5ccccc5)c3=O)CCOC4)cc1F)cc2[C@H]1CC[C@H](O)CC1 [example 22, N-(4-(4-amino-7-((1r,4r)-4-hydroxycyclohexyl)pyrrolo[2,1-f][1,2,4]triazin-5-yl)-3-fluorophenyl)-2-oxo-1-phenyl-2,4,6,7-tetrahydro-1H-pyrazolo[5,1-c][1,4]oxazine-3-carboxamide] |
| > 8.30 | No inhibition | > 8.30 | 1.58 | 0.836 | Nc1ncnn2c1c(-c1ccc(NC(=O)c3c4n(n(-c5ccccn5)c3=O)CCCC4)cc1F)cc2[C@H]1CC[C@H](O)CC1 [example 30, N-(4-(4-amino-7-((1r,4r)-4-hydroxycyclohexyl)pyrrolo[2,1-f][1,2,4]triazin-5-yl)-3-fluorophenyl)-2-oxo-1-(pyridin-2-yl)-1,2,4,5,6,7-hexahydropyrazolo[1,5-a]pyridine-3-carboxamide] |
| > 8.30 | No inhibition |  | 24.7 | 0.779 | Nc1ncnn2c(C3CCN(C(=O)C4CC4)CC3)cc(-c3ccc(NC(=O)c4c5n(n(-c6ccccn6)c4=O)CCCC5)cc3F)c12 [example 10, N-(4-(4-amino-7-(1-(cyclopropanecarbonyl)piperidin-4-yl)pyrrolo[2,1-f][1,2,4]triazin-5-yl)-3-fluorophenyl)-2-oxo-1-(pyridin-2-yl)-1,2,4,5,6,7-hexahydropyrazolo[1,5-a]pyridine-3-carboxamide] |
| > 8.30 |  | 7.30 to 8.30 | 6.37 | 1.06 | CC(C)(O)C(=O)N1CCC(c2cc(-c3ccc(NC(=O)c4c5n(n(-c6ccccn6)c4=O)CCCC5)cc3F)c3c(N)ncnn23)CC1 [example 29, N-(4-(4-amino-7-(1-(2-hydroxy-2-methylpropanoyl)piperidin-4-yl)pyrrolo[2,1-f][1,2,4]triazin-5-yl)-3-fluorophenyl)-2-oxo-1-(pyridin-2-yl)-1,2,4,5,6,7-hexahydropyrazolo[1,5-a]pyridine-3-carboxamide] |
